Results on four compounds are retold here after PMC3774784 (Bioorganic & medicinal chemistry letters, 2011).

For assay [1], the target named is human VEGFR2 kinase (Homo sapiens, UniProt P35968). The experiment in a line: KDR ELISA assay. The assay is classed as biochemical. Background: In an ELISA, binding on a coated surface is turned into a signal by an enzyme label.
Assay [2] concerns KDR. The note with it: read-out: Reported KDR Inhibition IC50; cited from earlier work.
The subject of assay [3] is KDR. The note with it: read-out: reported IC50 value; final ATP concentration 2 μM; cited from earlier work.

Where two headings read alike, the source gives them in different places.

Chain of human VEGFR2 kinase (P35968 790-1356 limits assumed): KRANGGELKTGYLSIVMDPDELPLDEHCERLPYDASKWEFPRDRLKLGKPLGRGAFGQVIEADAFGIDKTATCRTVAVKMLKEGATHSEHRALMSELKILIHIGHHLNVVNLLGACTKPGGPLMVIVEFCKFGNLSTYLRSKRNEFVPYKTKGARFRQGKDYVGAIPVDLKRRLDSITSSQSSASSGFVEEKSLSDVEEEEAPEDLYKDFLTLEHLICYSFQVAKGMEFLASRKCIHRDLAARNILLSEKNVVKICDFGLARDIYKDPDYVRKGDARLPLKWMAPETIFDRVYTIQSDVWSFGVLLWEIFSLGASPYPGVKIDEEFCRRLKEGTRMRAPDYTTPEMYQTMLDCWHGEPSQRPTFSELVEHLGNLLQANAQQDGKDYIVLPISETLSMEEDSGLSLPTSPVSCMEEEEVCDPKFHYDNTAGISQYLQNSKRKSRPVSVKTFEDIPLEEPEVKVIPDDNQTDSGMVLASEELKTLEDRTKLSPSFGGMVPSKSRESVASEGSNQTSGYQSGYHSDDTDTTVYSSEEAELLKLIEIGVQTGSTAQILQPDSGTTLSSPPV

Regarding `COc1cc2ncnc(Nc3ccc(Cl)cc3)c2cc1OC` [Compound 10, (4-Chloro-phenyl)-(6,7-dimethoxy-quinazolin-4-yl)-amine], the “KDR assay activity in words” value in assay [1] is “relatively inactive”. In assay [2], the IC50 is 800 nM.
Compound `COc1cc2ncnc(Nc3ccc(C)c(F)c3)c2cc1OC` [Compound 14, (6,7-Dimethoxy-quinazolin-4-yl)-(3-fluoro-4-methyl-phenyl)-amine] had an IC50 in assay [1] of 2500 nM.
With `COc1ccc(-c2cnc3c(-c4ccsc4)cnn3c2)cc1` [Compound 21, 6-(4-Methoxy-phenyl)-3-thiophen-3-yl-pyrazolo[1,5-a]pyrimidine], the “KDR assay activity in words” value in assay [1] is “active”.
With `COc1cc2nccc(Oc3ccc(NC(=O)Nc4ccc(F)cc4F)c(F)c3)c2cc1OC` [Ki8751, reference compound], the IC50 in assay [1] (read-out: KDR IC50, 20 μM ATP) was 800 nM; in assay [3], 0.9 nM.

Usually IC50 stands for the midpoint of a concentration-inhibition curve.
